Patent US10479780B2, “Aminopyrazole derivatives” (Chugai Seiyaku Kabushiki Kaisha, priority 2015, dated 2019)

Experiments:
Format in all cases: biochemical
human Src enzyme = biological target: T1, human Src enzyme (Homo sapiens, UniProt P12931); experiment: Src enzyme inhibitory activity (time-resolved fluorometry, biotinylated peptide phosphorylation); settings: biotinylated peptide phosphorylation, read-out: SRC_IC50
T1 construct: purchased Carna Biosciences, Inc. 08-173
Summary of the method: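 Compounds were tested for blocking tyrosine phosphorylation of a biotinylated peptide substrate by recombinant human Src. Phosphorylated product was quantified by time-resolved fluorometry using europium cryptate and XL665 conjugates, and IC50 was calculated against the compound-free control.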

human Lck enzyme = biological target: T2, human Lck enzyme (Homo sapiens, UniProt P06239); experiment: Lck enzyme inhibitory activity (time-resolved fluorometry, biotinylated peptide phosphorylation); settings: biotinylated peptide phosphorylation, read-out: LCK_IC50
T2 construct: purchased Carna Biosciences, Inc. 08-170
T2 sequence (P06239 whole entry): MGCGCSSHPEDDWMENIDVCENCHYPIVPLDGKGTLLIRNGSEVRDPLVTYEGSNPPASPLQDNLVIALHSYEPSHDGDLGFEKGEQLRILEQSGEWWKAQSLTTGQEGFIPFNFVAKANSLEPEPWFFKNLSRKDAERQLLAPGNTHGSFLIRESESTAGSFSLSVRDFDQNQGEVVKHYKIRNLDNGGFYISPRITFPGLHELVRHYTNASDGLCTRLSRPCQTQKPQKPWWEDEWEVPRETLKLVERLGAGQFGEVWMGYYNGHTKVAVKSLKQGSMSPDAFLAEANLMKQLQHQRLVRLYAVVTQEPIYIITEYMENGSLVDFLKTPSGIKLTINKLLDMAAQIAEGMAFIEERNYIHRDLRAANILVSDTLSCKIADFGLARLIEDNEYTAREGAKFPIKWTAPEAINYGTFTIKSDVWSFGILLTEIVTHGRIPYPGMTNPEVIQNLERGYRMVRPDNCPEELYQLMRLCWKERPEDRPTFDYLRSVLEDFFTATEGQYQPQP
Summary of the method: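 Readout pairs a europium cryptate-labelled anti-phosphotyrosine antibody with XL665-streptavidin, measured by time-resolved fluorescence. IC50 derived from percent inhibition against untreated controls.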

human Yes1 enzyme = biological target: T3, human Yes1 enzyme (Homo sapiens, UniProt P07947); experiment: Yes1 enzyme inhibitory activity (time-resolved fluorometry, biotinylated peptide phosphorylation); settings: biotinylated peptide phosphorylation, read-out: YES_IC50
T3 construct: made in house
T3 sequence (P07947 whole entry): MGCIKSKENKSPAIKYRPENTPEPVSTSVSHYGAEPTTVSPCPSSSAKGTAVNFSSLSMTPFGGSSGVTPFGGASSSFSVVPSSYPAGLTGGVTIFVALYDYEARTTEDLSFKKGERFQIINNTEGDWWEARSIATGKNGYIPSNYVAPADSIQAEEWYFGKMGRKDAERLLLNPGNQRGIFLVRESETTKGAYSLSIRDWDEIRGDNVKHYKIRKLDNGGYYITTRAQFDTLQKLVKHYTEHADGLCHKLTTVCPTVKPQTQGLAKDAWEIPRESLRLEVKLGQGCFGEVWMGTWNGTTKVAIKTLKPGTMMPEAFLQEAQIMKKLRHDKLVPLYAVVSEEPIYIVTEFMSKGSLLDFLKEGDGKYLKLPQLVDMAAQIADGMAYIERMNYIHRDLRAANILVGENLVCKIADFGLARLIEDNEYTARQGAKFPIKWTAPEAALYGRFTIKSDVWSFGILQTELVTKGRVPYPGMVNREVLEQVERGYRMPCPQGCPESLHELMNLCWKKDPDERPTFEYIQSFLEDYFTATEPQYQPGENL
Summary of the method: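 Inhibition was expressed against a compound-free control to give IC50, using TR-FRET read-out (Eu-cryptate anti-pTyr antibody, streptavidin-XL665).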

T1 sequence (P12931 whole entry): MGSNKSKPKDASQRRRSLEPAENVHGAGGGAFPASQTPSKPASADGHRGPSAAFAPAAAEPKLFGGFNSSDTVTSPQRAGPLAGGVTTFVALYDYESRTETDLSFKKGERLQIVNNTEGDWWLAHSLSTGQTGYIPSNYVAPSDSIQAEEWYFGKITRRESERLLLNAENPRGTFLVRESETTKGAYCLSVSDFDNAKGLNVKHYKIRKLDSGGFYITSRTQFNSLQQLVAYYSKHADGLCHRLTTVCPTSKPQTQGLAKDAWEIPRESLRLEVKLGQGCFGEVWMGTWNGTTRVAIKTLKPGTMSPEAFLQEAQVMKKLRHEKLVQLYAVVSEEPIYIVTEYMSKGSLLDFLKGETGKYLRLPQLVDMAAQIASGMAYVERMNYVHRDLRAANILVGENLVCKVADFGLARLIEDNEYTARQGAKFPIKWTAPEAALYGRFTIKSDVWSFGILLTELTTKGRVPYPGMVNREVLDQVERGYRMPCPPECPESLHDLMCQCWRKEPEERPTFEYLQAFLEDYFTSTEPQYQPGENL

SMILES | IC50 (human Src enzyme) | IC50 (human Lck enzyme) | IC50 (human Yes1 enzyme)
Cc1cc(Oc2ccccc2F)ccc1-n1ncc(C(=O)c2cc3cc(F)c(NS(=O)(=O)c4cccnc4)cc3[nH]2)c1N [Example 5-1-489, N-[2-[5-amino-1-[4-(2-fluorophenoxy)-2-methylphenyl]pyrazole-4-carbonyl]-5-fluoro-1H-indol-6-yl]pyridine-3-sulfonamide] | 190 nM | 49 nM | 1.9 nM
Cc1cc(Oc2ccccc2F)ccc1-n1ncc(C(=O)c2cc3cc(F)c(NS(=O)(=O)c4cccc(C#N)c4)cc3[nH]2)c1N [Example 5-1-490, N-[2-[5-amino-1-[4-(2-fluorophenoxy)-2-methylphenyl]pyrazole-4-carbonyl]-5-fluoro-1H-indol-6-yl]-3-cyanobenzenesulfonamide] | 430 nM | 110 nM | 3.7 nM
Cc1cc(Oc2c(F)cccc2F)ncc1-n1ncc(C(=O)c2cc3cc(F)c(NS(=O)(=O)c4cccnc4)cc3[nH]2)c1N [Example 5-1-491, N-[2-[5-amino-1-[6-(2,6-difluorophenoxy)-4-methylpyridin-3-yl]pyrazole-4-carbonyl]-5-fluoro-1H-indol-6-yl]pyridine-3-sulfonamide] | 400 nM | 100 nM | 4.9 nM
Cc1cc(Oc2c(F)cccc2F)ncc1-n1ncc(C(=O)c2cc3cc(F)c(NS(=O)(=O)c4cccc(C#N)c4)cc3[nH]2)c1N [Example 5-1-492, N-[2-[5-amino-1-[6-(2,6-difluorophenoxy)-4-methylpyridin-3-yl]pyrazole-4-carbonyl]-5-fluoro-1H-indol-6-yl]-3-cyanobenzenesulfonamide] | 760 nM | 150 nM | 8 nM
Cc1cc2cc(C(=O)c3cnn(-c4cnc(Oc5ccccc5F)cc4C)c3N)[nH]c2cc1NS(=O)(=O)c1cc(Cl)cc(C#N)c1 [Example 5-1-498, N-[2-[5-amino-1-[6-(2-fluorophenoxy)-4-methylpyridin-3-yl]pyrazole-4-carbonyl]-5-methyl-1H-indol-6-yl]-3-chloro-5-cyanobenzenesulfonamide] | 1600 nM | 420 nM | 8.7 nM
Cc1cc2cc(C(=O)c3cnn(-c4cnc(Oc5ccccc5F)cc4C)c3N)[nH]c2cc1NS(=O)(=O)c1cc(C#N)cc(C(F)(F)F)c1 [Example 5-1-499, N-[2-[5-amino-1-[6-(2-fluorophenoxy)-4-methylpyridin-3-yl]pyrazole-4-carbonyl]-5-methyl-1H-indol-6-yl]-3-cyano-5-(trifluoromethyl)benzenesulfonamide] | 1800 nM | 550 nM | 16 nM
COc1ccccc1-c1cc2[nH]c(C(=O)c3cnn(-c4cnc(Oc5c(F)cccc5F)cc4C)c3N)cc2cc1OC1CCN(C2CCCC2)CC1 [Example 5-1-503, [5-amino-1-[6-(2,6-difluorophenoxy)-4-methylpyridin-3-yl]pyrazol-4-yl]-[5-(1-cyclopentylpiperidin-4-yl)oxy-6-(2-methoxyphenyl)-1H-indol-2-yl]methanone] | 87 nM | 15 nM | 1.9 nM
Cc1cccc(S(=O)(=O)Nc2cc3[nH]c(C(=O)c4cnn(-c5cnc(Oc6ccccc6F)cc5C)c4N)cc3cc2C)n1 [Example 5-1-507, N-[2-[5-amino-1-[6-(2-fluorophenoxy)-4-methylpyridin-3-yl]pyrazole-4-carbonyl]-5-methyl-1H-indol-6-yl]-6-methylpyridine-2-sulfonamide] | 480 nM | 92 nM | 2.8 nM
Cc1cc2cc(C(=O)c3cnn(-c4cnc(Oc5ccccc5F)cc4C)c3N)[nH]c2cc1NS(=O)(=O)c1cccc(Cl)n1 [Example 5-1-508, N-[2-[5-amino-1-[6-(2-fluorophenoxy)-4-methylpyridin-3-yl]pyrazole-4-carbonyl]-5-methyl-1H-indol-6-yl]-6-chloropyridine-2-sulfonamide] | 920 nM | 140 nM | 4 nM
COc1ccnc(S(=O)(=O)Nc2cc3[nH]c(C(=O)c4cnn(-c5ccc(Oc6ccccc6F)cc5C)c4N)cc3cc2C)c1 [Example 5-1-510, N-[2-[5-amino-1-[4-(2-fluorophenoxy)-2-methylphenyl]pyrazole-4-carbonyl]-5-methyl-1H-indol-6-yl]-4-methoxypyridine-2-sulfonamide] | 230 nM | 89 nM | 0.92 nM

Further lines, results first:

IC50 (human Src enzyme) | IC50 (human Lck enzyme) | IC50 (human Yes1 enzyme) | SMILES
520 nM | 120 nM | 4.2 nM | Cc1cncc(S(=O)(=O)Nc2cc3[nH]c(C(=O)c4cnn(-c5cnc(Oc6ccccc6F)cc5C)c4N)cc3cc2C)c1 [Example 5-1-488, N-[2-[5-amino-1-[6-(2-fluorophenoxy)-4-methylpyridin-3-yl]pyrazole-4-carbonyl]-5-methyl-1H-indol-6-yl]-5-methylpyridine-3-sulfonamide]
430 nM | 230 nM | 3 nM | Cc1cc2cc(C(=O)c3cnn(-c4cnc(Oc5ccccc5F)cc4C)c3N)[nH]c2cc1NS(=O)(=O)c1cncc(F)c1 [Example 5-1-494, N-[2-[5-amino-1-[6-(2-fluorophenoxy)-4-methylpyridin-3-yl]pyrazole-4-carbonyl]-5-methyl-1H-indol-6-yl]-5-fluoropyridine-3-sulfonamide]
550 nM | 360 nM | 3.9 nM | Cc1cc2cc(C(=O)c3cnn(-c4cnc(Oc5ccccc5F)cc4C)c3N)[nH]c2cc1NS(=O)(=O)c1cncc(Cl)c1 [Example 5-1-495, N-[2-[5-amino-1-[6-(2-fluorophenoxy)-4-methylpyridin-3-yl]pyrazole-4-carbonyl]-5-methyl-1H-indol-6-yl]-5-chloropyridine-3-sulfonamide]
1300 nM | 630 nM | 11 nM | COc1cc(F)cc(S(=O)(=O)Nc2cc3[nH]c(C(=O)c4cnn(-c5cnc(Oc6ccccc6F)cc5C)c4N)cc3cc2C)c1 [Example 5-1-496, N-[2-[5-amino-1-[6-(2-fluorophenoxy)-4-methylpyridin-3-yl]pyrazole-4-carbonyl]-5-methyl-1H-indol-6-yl]-3-fluoro-5-methoxybenzenesulfonamide]
660 nM | 170 nM | 4.7 nM | Cc1cc2cc(C(=O)c3cnn(-c4cnc(Oc5ccccc5F)cc4C)c3N)[nH]c2cc1NS(=O)(=O)c1cc(F)cc(C#N)c1 [Example 5-1-497, N-[2-[5-amino-1-[6-(2-fluorophenoxy)-4-methylpyridin-3-yl]pyrazole-4-carbonyl]-5-methyl-1H-indol-6-yl]-3-cyano-5-fluorobenzenesulfonamide]
750 nM | 200 nM | 5.7 nM | Cc1cc2cc(C(=O)c3cnn(-c4cnc(Oc5ccccc5F)cc4C)c3N)[nH]c2cc1NS(=O)(=O)c1cccc(F)c1 [Example 5-1-500, N-[2-[5-amino-1-[6-(2-fluorophenoxy)-4-methylpyridin-3-yl]pyrazole-4-carbonyl]-5-methyl-1H-indol-6-yl]-3-fluorobenzenesulfonamide]
570 nM | 190 nM | 4.8 nM | Cc1cc2cc(C(=O)c3cnn(-c4cnc(Oc5ccccc5F)cc4C)c3N)[nH]c2cc1NS(=O)(=O)c1c(F)cc(F)cc1F [Example 5-1-501, N-[2-[5-amino-1-[6-(2-fluorophenoxy)-4-methylpyridin-3-yl]pyrazole-4-carbonyl]-5-methyl-1H-indol-6-yl]-2,4,6-trifluorobenzenesulfonamide]
350 nM | 110 nM | 2.3 nM | Cc1cc2cc(C(=O)c3cnn(-c4cnc(Oc5ccccc5F)cc4C)c3N)[nH]c2cc1NS(=O)(=O)c1cccc(F)n1 [Example 5-1-502, N-[2-[5-amino-1-[6-(2-fluorophenoxy)-4-methylpyridin-3-yl]pyrazole-4-carbonyl]-5-methyl-1H-indol-6-yl]-6-fluoropyridine-2-sulfonamide]
630 nM | 140 nM | 3.6 nM | Cc1cnc(F)c(S(=O)(=O)Nc2cc3[nH]c(C(=O)c4cnn(-c5cnc(Oc6ccccc6F)cc5C)c4N)cc3cc2C)c1 [Example 5-1-504, N-[2-[5-amino-1-[6-(2-fluorophenoxy)-4-methylpyridin-3-yl]pyrazole-4-carbonyl]-5-methyl-1H-indol-6-yl]-2-fluoro-5-methylpyridine-3-sulfonamide]
470 nM | 68 nM | 2.5 nM | Cc1cc2cc(C(=O)c3cnn(-c4cnc(Oc5ccccc5F)cc4C)c3N)[nH]c2cc1NS(=O)(=O)c1cc(F)ccn1 [Example 5-1-505, N-[2-[5-amino-1-[6-(2-fluorophenoxy)-4-methylpyridin-3-yl]pyrazole-4-carbonyl]-5-methyl-1H-indol-6-yl]-4-fluoropyridine-2-sulfonamide]
500 nM | 99 nM | 3 nM | Cc1ccnc(S(=O)(=O)Nc2cc3[nH]c(C(=O)c4cnn(-c5cnc(Oc6ccccc6F)cc5C)c4N)cc3cc2C)c1 [Example 5-1-506, N-[2-[5-amino-1-[6-(2-fluorophenoxy)-4-methylpyridin-3-yl]pyrazole-4-carbonyl]-5-methyl-1H-indol-6-yl]-4-rmethylpyridine-2-sulfonamide]
840 nM | 130 nM | 3.7 nM | Cc1cc2cc(C(=O)c3cnn(-c4cnc(Oc5ccccc5F)cc4C)c3N)[nH]c2cc1NS(=O)(=O)c1cc(Cl)ccn1 [Example 5-1-509, N-[2-[5-amino-1-[6-(2-fluorophenoxy)-4-methylpyridin-3-yl]pyrazole-4-carbonyl]-5-methyl-1H-indol-6-yl]-4-chloropyridine-2-sulfonamide]
